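Compound exposure: 48 hours, 5 concentrations, 96-well plates. GI50 marks 50% less growth.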 Active and inactive are the calls of the source. Rule as the data show it: active = GI50 up to about 1.1 µM and inactive = higher.
What was measured:
Test in all cases: NCI-60 cell line screen, 48 h
HL-60 = tested on: HL-60
KM12 = tested on: KM12
OVCAR-8 = tested on: OVCAR-8
HCT-116 = tested on: HCT-116
MCF7 = tested on: MCF7
HCC 2998 = tested on: HCC 2998
SK-OV-3 = tested on: SK-OV-3
CCRF-CEM = tested on: CCRF-CEM
U-251 = tested on: U-251
MDA-MB-231 = tested on: MDA-MB-231
SNB-19 = tested on: SNB-19
TK-10 = tested on: TK-10
SN12C = tested on: SN12C
ACHN = tested on: ACHN
NCI/ADR-RES = tested on: NCI/ADR-RES
M14 = tested on: M14
SK-MEL-28 = tested on: SK-MEL-28
MOLT-4 = tested on: MOLT-4
UO-31 = tested on: UO-31
HOP-62 = tested on: HOP-62

Row | SMILES | GI50 (HL-60) | GI50 (KM12) | GI50 (OVCAR-8) | GI50 (HCT-116) | GI50 (MCF7) | GI50 (HCC 2998) | GI50 (SK-OV-3) | GI50 (CCRF-CEM) | GI50 (U-251) | GI50 (MDA-MB-231) | GI50 (SNB-19) | GI50 (TK-10) | GI50 (SN12C) | GI50 (ACHN) | GI50 (NCI/ADR-RES) | GI50 (M14) | GI50 (SK-MEL-28) | GI50 (MOLT-4) | GI50 (UO-31) | GI50 (HOP-62)
1 | NP(=O)(OCC1=CC(=O)c2ccccc2C1=O)N(CCBr)CCBr (stereo unspecified) | 0.863 µM (active) | 8.65 µM (inactive) | 12.1 µM (inactive) | 9.55 µM (inactive) | 2.07 µM (inactive) | 16 µM (inactive) | 14.3 µM (inactive) | 1.2 µM (inactive) | 11.5 µM (inactive) | 11.4 µM (inactive) | 18.3 µM (inactive) | 17.2 µM (inactive) | 10.6 µM (inactive) | 1.44 µM (inactive) | 8.49 µM (inactive) | 2.01 µM (inactive) | 4.23 µM (inactive) | 0.634 µM (active) | 11.2 µM (inactive) | 
2 | COc1ccc2c(c1)CCc1c(-c3noc4c3CCc3cc(OC)ccc3-4)noc1-2 | > 100 µM (inactive) | > 100 µM (inactive) | > 100 µM (inactive) | > 100 µM (inactive) | > 100 µM (inactive) | 40.4 µM (inactive) | > 100 µM (inactive) |  | > 100 µM (inactive) | > 100 µM (inactive) | > 100 µM (inactive) | > 100 µM (inactive) | > 100 µM (inactive) | > 100 µM (inactive) | > 100 µM (inactive) | > 100 µM (inactive) | > 100 µM (inactive) | > 100 µM (inactive) | > 100 µM (inactive) | > 100 µM (inactive)
3 | CC(=O)N1C(Nc2ccccn2)CCN1c1ccccc1 (stereo unspecified) | > 10 µM (inactive) |  | > 10 µM (inactive) | > 10 µM (inactive) | > 10 µM (inactive) | > 10 µM (inactive) | > 10 µM (inactive) | > 10 µM (inactive) |  | > 10 µM (inactive) | > 10 µM (inactive) | > 10 µM (inactive) | > 10 µM (inactive) | 7.36 µM (inactive) | > 10 µM (inactive) | > 10 µM (inactive) | > 10 µM (inactive) | > 10 µM (inactive) | > 10 µM (inactive) | > 10 µM (inactive)
4 | CN(C)CCC(C(=O)C(C)(C)C)c1ccccn1 (stereo unspecified) | > 100 µM (inactive) | > 100 µM (inactive) | > 100 µM (inactive) | > 100 µM (inactive) | > 100 µM (inactive) | > 100 µM (inactive) | > 100 µM (inactive) | > 100 µM (inactive) | > 100 µM (inactive) | > 100 µM (inactive) | > 100 µM (inactive) | > 100 µM (inactive) | > 100 µM (inactive) | > 100 µM (inactive) | > 100 µM (inactive) | > 100 µM (inactive) | > 100 µM (inactive) |  | > 100 µM (inactive) | > 100 µM (inactive)
5 | CN(C)C(=O)c1nnsc1NN=O | > 100 µM (inactive) | > 100 µM (inactive) | > 100 µM (inactive) | > 100 µM (inactive) | > 100 µM (inactive) | > 100 µM (inactive) | > 100 µM (inactive) | > 100 µM (inactive) | > 100 µM (inactive) | > 100 µM (inactive) | > 100 µM (inactive) |  | > 100 µM (inactive) | > 100 µM (inactive) | > 100 µM (inactive) | > 100 µM (inactive) | > 100 µM (inactive) | > 100 µM (inactive) | > 100 µM (inactive) | > 100 µM (inactive)
6 | Cc1cccc2c1Oc1cc(Cl)ccc1C2NC(=O)CCN1CCOCC1 (stereo unspecified) | 32.2 µM (inactive) | > 100 µM (inactive) | > 100 µM (inactive) | > 100 µM (inactive) | > 100 µM (inactive) | > 100 µM (inactive) | > 100 µM (inactive) | > 100 µM (inactive) | > 100 µM (inactive) | > 100 µM (inactive) | > 100 µM (inactive) | > 100 µM (inactive) | > 100 µM (inactive) |  | > 100 µM (inactive) | > 100 µM (inactive) | > 100 µM (inactive) | 49.4 µM (inactive) | 49.8 µM (inactive) | > 100 µM (inactive)
7 | c1ccc(CNCCCCNCCCNCc2ccccc2)cc1 |  | 20 µM (inactive) | > 10 µM (inactive) | 17.3 µM (inactive) | > 100 µM (inactive) | 16.9 µM (inactive) | > 100 µM (inactive) | 13 µM (inactive) | 17.8 µM (inactive) | 15.2 µM (inactive) | 16.4 µM (inactive) | 19.8 µM (inactive) | 19.8 µM (inactive) | 15.7 µM (inactive) | > 100 µM (inactive) | 29.1 µM (inactive) | 16 µM (inactive) | 14.3 µM (inactive) | 21.5 µM (inactive) | 22.2 µM (inactive)
8 | CC(=O)c1c2c(cc3c1CC1(C3)Cc3cc4c(c(C(C)=O)c3C1)CCCC4)CCCC2 | 15.8 µM (inactive) | 28.7 µM (inactive) | > 100 µM (inactive) | 55.8 µM (inactive) | 56.2 µM (inactive) | > 100 µM (inactive) | > 100 µM (inactive) | 7.19 µM (inactive) | > 100 µM (inactive) | > 100 µM (inactive) |  | > 100 µM (inactive) | > 100 µM (inactive) | 27.9 µM (inactive) | > 100 µM (inactive) | > 100 µM (inactive) |  | 18.4 µM (inactive) | 0.104 µM (active) | > 100 µM (inactive)
9 | C=CCN1C[C@H](C)N([C@H](c2ccc(C(=O)NC(CC)CC)cc2)c2cccc(OC)c2)C[C@H]1C | 10.9 µM (inactive) | 37.7 µM (inactive) | 62.5 µM (inactive) | 21.6 µM (inactive) | 35.2 µM (inactive) | 29.2 µM (inactive) | > 100 µM (inactive) | 41.4 µM (inactive) | 34 µM (inactive) | 28 µM (inactive) | 75 µM (inactive) | 66.4 µM (inactive) | 36.8 µM (inactive) | 33.9 µM (inactive) | 42.8 µM (inactive) | 17.7 µM (inactive) |  | > 100 µM (inactive) | 21.2 µM (inactive) | > 100 µM (inactive)
10 | O=C1CCC2(CC1CC(Sc1ccccc1)Sc1ccccc1)OCCO2 (stereo unspecified) | 19.8 µM (inactive) | 27.4 µM (inactive) | 42.5 µM (inactive) |  | 32 µM (inactive) | 44.1 µM (inactive) | > 100 µM (inactive) | 31 µM (inactive) | 41.9 µM (inactive) | 83.4 µM (inactive) | 74.1 µM (inactive) | 62.7 µM (inactive) |  | 38.6 µM (inactive) | 33.4 µM (inactive) | 43.9 µM (inactive) | 85.9 µM (inactive) | 20.7 µM (inactive) | 36.1 µM (inactive) | 81.1 µM (inactive)
11 | CC1(C)N=C(/C(Cl)=[N+](/[O-])C(=O)c2ccc(F)cc2)C(C)(C)N1O | 10.8 µM (inactive) | 26.2 µM (inactive) | 17.5 µM (inactive) | 16.4 µM (inactive) | 19.1 µM (inactive) | 18.8 µM (inactive) | 22.6 µM (inactive) | 0.466 µM (active) | > 10 µM (inactive) | 16.8 µM (inactive) | > 100 µM (inactive) | 16.1 µM (inactive) | 15.8 µM (inactive) | 19.1 µM (inactive) | 36.6 µM (inactive) | 16.1 µM (inactive) | 15.8 µM (inactive) |  | 21 µM (inactive) | 19.6 µM (inactive)
12 | CC(=O)OC1COC(Nc2nc(N)n(C)c(=O)c2N=O)C(OC(C)=O)C1OC(C)=O (stereo unspecified) | > 10 µM (inactive) | > 10 µM (inactive) | > 10 µM (inactive) | > 10 µM (inactive) | > 10 µM (inactive) | > 10 µM (inactive) | > 10 µM (inactive) | > 10 µM (inactive) | > 10 µM (inactive) | > 10 µM (inactive) | > 10 µM (inactive) | > 10 µM (inactive) | > 10 µM (inactive) | > 10 µM (inactive) | > 10 µM (inactive) | > 10 µM (inactive) | > 10 µM (inactive) | > 10 µM (inactive) |  | > 10 µM (inactive)
13 | O=c1cc(N2CCCC2)[nH]c(=O)n1-c1cccc(Cl)c1 | > 100 µM (inactive) | > 100 µM (inactive) | > 100 µM (inactive) | > 100 µM (inactive) | > 100 µM (inactive) | > 100 µM (inactive) | > 100 µM (inactive) | > 100 µM (inactive) | > 100 µM (inactive) | > 100 µM (inactive) | > 100 µM (inactive) | > 100 µM (inactive) | > 100 µM (inactive) | > 100 µM (inactive) | > 100 µM (inactive) | > 100 µM (inactive) |  | > 100 µM (inactive) |  | > 100 µM (inactive)
14 | CC(=O)Oc1ccc(C)c2c1[C@H]1CC[C@]3(C)[C@@H](OC(C)=O)CC[C@H]3[C@@H]1CC2 | 20.7 µM (inactive) | 18.6 µM (inactive) | 22.4 µM (inactive) | 17 µM (inactive) | 23.6 µM (inactive) | 18 µM (inactive) |  | 21.9 µM (inactive) | 15.2 µM (inactive) | 18.2 µM (inactive) | 17.9 µM (inactive) | 26.5 µM (inactive) | 18.8 µM (inactive) | 16.2 µM (inactive) | 18.2 µM (inactive) | 17.5 µM (inactive) | 17.3 µM (inactive) | 16 µM (inactive) | 39.3 µM (inactive) | 18.1 µM (inactive)
15 | Cc1cc(S(=O)(=O)Nc2nc3ccsc3c(=O)n2N)c(S)cc1Cl | > 100 µM (inactive) | 80.7 µM (inactive) | > 100 µM (inactive) | 94.8 µM (inactive) | > 100 µM (inactive) | > 100 µM (inactive) | > 100 µM (inactive) | 71.9 µM (inactive) | 57.1 µM (inactive) | 70.1 µM (inactive) | 37.2 µM (inactive) | > 100 µM (inactive) | > 100 µM (inactive) | 56.9 µM (inactive) | 85.3 µM (inactive) | 68.7 µM (inactive) | > 100 µM (inactive) | 64.3 µM (inactive) |  | 39.9 µM (inactive)

Reference: ChEMBL document CHEMBL1201862, “PubChem BioAssay data set” (2004)
